ChEMBL document CHEMBL2417364, “Acetylated dammarane-type bisdesmosides from Combretum inflatum” (J Nat Prod, 2013)
pIC50: −log10 of the molar value.

How the values were obtained:
[1] = tested on: Escherichia coli; experiment: Inhibition of biofilm formation in Escherichia coli UTI89 after 72 hrs by crystal violet staining; type: functional, organism-based; conditions: UTI89, 72 h
[2] = tested on: Staphylococcus aureus; experiment: Antibacterial activity against methicillin-resistant Staphylococcus aureus clinical isolate 108 at 16 ug/ml after 24 hrs by broth microdilution method; type: functional
[3] = tested on: NCI-H460; experiment: Cytotoxicity against human NCI-H460 cells after 72 hrs; type: functional, cell-based; conditions: NCI-H460, 72 h

SMILES	IC50 [1] [µg/mL]	Activity [2] [%]	pIC50 [3]
CC(=O)O[C@@H]1[C@H](O[C@@H]2O[C@H](C)[C@H](O)[C@H](O)[C@H]2O)C[C@]2(C)[C@H]3[C@H](O[C@@H]4O[C@H](C)[C@H](O)[C@H](O)[C@H]4O)C[C@@H]4[C@@H]([C@](C)(O)CCCC(C)(C)O)CC[C@@]4(C)[C@]3(C)CC[C@H]2C1(C)C	≥ 30	–	–
CC(=O)O[C@@H]1[C@H](O[C@@H]2O[C@H](C)[C@@H](O)[C@H](O)[C@H]2O)C[C@]2(C)[C@H]3[C@H](O[C@@H]4O[C@H](C)[C@H](O)[C@H](O)[C@H]4O)C[C@@H]4[C@@H]([C@](C)(O)CCCC(C)(C)O)CC[C@@]4(C)[C@]3(C)CC[C@H]2C1(C)C	≥ 30	–	–
CC(=O)O[C@@H]1[C@H](O[C@@H]2O[C@H](C)[C@H](O)[C@H](O)[C@H]2O)C[C@]2(C)[C@H]3[C@H](O[C@@H]4O[C@H](C)[C@H](O)[C@H](O)[C@H]4O)C[C@@H]4[C@@H](/C(C)=C/CCC(C)(C)O)CC[C@@]4(C)[C@]3(C)CC[C@H]2C1(C)C	≥ 30	71	–
CC(=O)O[C@@H]1[C@H](O[C@@H]2O[C@H](C)[C@@H](O)[C@H](O)[C@H]2O)C[C@]2(C)[C@H]3[C@H](O[C@@H]4O[C@H](C)[C@H](O)[C@H](O)[C@H]4O)C[C@@H]4[C@@H](/C(C)=C/CCC(C)(C)O)CC[C@@]4(C)[C@]3(C)CC[C@H]2C1(C)C	≥ 30	64	–
CC(=O)O[C@@H]1[C@H](O[C@@H]2O[C@H](C)[C@H](O)[C@H](O)[C@H]2O)C[C@]2(C)[C@H]3[C@H](O[C@@H]4O[C@H](C)[C@H](O)[C@H](O)[C@H]4O)C[C@@H]4[C@@H]([C@](C)(O)CCC=C(C)C)CC[C@@]4(C)[C@]3(C)CC[C@H]2C1(C)C	≥ 30	45	–
CC(=O)O[C@@H]1[C@H](O[C@@H]2O[C@H](C)[C@@H](O)[C@H](O)[C@H]2O)C[C@]2(C)[C@H]3[C@H](O[C@@H]4O[C@H](C)[C@H](O)[C@H](O)[C@H]4O)C[C@@H]4[C@@H]([C@](C)(O)CCC=C(C)C)CC[C@@]4(C)[C@]3(C)CC[C@H]2C1(C)C	≥ 30	51	–
CC(=O)O[C@@H]1[C@H](O[C@@H]2O[C@H](C)[C@H](O)[C@H](O)[C@H]2O)C[C@]2(C)[C@H]3[C@H](O[C@@H]4O[C@H](C)[C@H](O)[C@H](O)[C@H]4O)C[C@@H]4[C@@H]([C@@](C)(O)CCC=C(C)C)CC[C@@]4(C)[C@]3(C)CC[C@H]2C1(C)C	≥ 30	49	5.41
